This is an account of results in US20230080811A1 (priority 2020, published 2023).

Structures are written as SMILES. Where a name gives a salt, the structure may show the parent alone.

The nature of the series: In vivo pharmacokinetic investigation, subcutaneous injection, plasma by LC-MS. The settings on record: in rats, inferred from PK and duration of efficacy. Set-up: species or system rat. The method, then: The obtained pharmaceutical composition was subcutaneously injected into male SD rats. Blood was collected at predetermined time points. The content of the drug in plasma was determined by LC-MS method, and the pharmacokinetics in vivo was investigated.
Experimental animals: male SD rats with a weight of 200-300 g, source: […] OF MATERIA MEDICA, CHINESE ACADEMY OF SCIENCES;
Experimental grouping: Rats were randomly divided into groups according to the following table, with 6 rats in each group;
Experimental procedure: Rats were subcutaneously injected, and at a predetermined time point, 0.5 ml of blood was collected from the orbit of the rat and placed in a centrifuge tube with heparin sodium anticoagulation. The tube was centrifuged at 3000 rpm for 10 min to separate the plasma, and the plasma concentration was detected by LC-MS method.
The pharmacokinetic (PK) parameters of the compositions were calculated, and the results were statistically analyzed by t-test.

Consider `CCCN1CCCC[C@H]1C(=O)Nc1c(C)cccc1C` [ropivacaine hydrochloride], for which the onset concentration entry was “about 20 ng/ml”.
